This note sets out measurements from patent US11207371B2, “Composition for improving or preventing nonalcoholic fatty liver” (KOHJIN LIFE SCIENCES CO., LTD., priority 2015, dated 2021).

Data set [1] has as its system subjects who had NAFLD in 31 IU/L or more of ALT. The note with it: Case IDs 1 to 9 (group affected); at least one week after initiation; glutathione 300 mg per day orally.
In data set [2] the test system is Mice (C57/B6J, 8 weeks old male) fed with high-fat food. From the text: Mice (C57/B6J, 8 weeks old male) were divided into 4 groups (5 animals each), and the first group (DB) was freely fed with ordinary food (Certified Diet “MF” manufactured by Oriental Yeast Co., ltd.). The second group (HFD) was freely fed with high-fat food (High Fat Diet 32, manufactured by CLEA Japan, Inc.), […].
When the mouse was 20 weeks old, the body weight, the liver weight, the serum aspartate aminotransferase (AST), the alanine aminotransferase (ALT), the serum triglyceride (TG), the free fatty acid value (FFA) and the total cholesterol value (T-cho) were measured.

Regarding `N[C@@H](CCC(=O)N[C@@H](CS)C(=O)NCC(=O)O)C(=O)O` [glutathione], the “improvement of ALT after the administration versus before initiation (0 wk)” value in data set [1] is listed as at least 20%. The “serum AST” value in data set [2] (HFD6 (6 mg/kg/day) and HFD60 (60 mg/kg/day) groups in comparison to the HFD group, 20 weeks old, concentration dependent, FIG. 5A) is “significant decrease”. Moreover, the “serum ALT” value in data set [2] (HFD6 (6 mg/kg/day) and HFD60 (60 mg/kg/day) groups in comparison to the HFD group, 20 weeks old, concentration dependent, FIG. 5B) is reported as “significant decrease”. Moreover, the “serum TG (triglyceride value)” value in data set [2] (HFD6 (6 mg/kg/day) and HFD60 (60 mg/kg/day) groups in comparison to the HFD group, 20 weeks old, concentration dependent, FIG. 6A) is given as “significant decrease”. For the same molecule, in data set [2] (HFD6 (6 mg/kg/day) and HFD60 (60 mg/kg/day) groups in comparison to the HFD group, 20 weeks old, concentration dependent, FIG. 6B), the “serum FFA (free fatty acid value)” value is on record as “significant decrease”. Besides, in data set [2] (HFD6 (6 mg/kg/day) and HFD60 (60 mg/kg/day) groups in comparison to the HFD group, 20 weeks old, concentration dependent, FIG. 6C), the “serum T-cho (total cholesterol value)” value is “significant decrease”. Further, the “consumption amount of feed” value in data set [2] (all of the groups (DB, HFD, HFD6, HFD60), FIG. 3A) is “no significant difference”. Besides, the “consumption amount of water” value in data set [2] (all of the groups (DB, HFD, HFD6, HFD60), FIG. 3B) was “no significant difference”. The liver weight entry in data set [2] (high-fat food mice, glutathione 6 and 60 mg/kg/day in water, 20 weeks old, FIG. 4A) is recorded as “decreased dependently on the concentration”. Also, the “ratio of liver weight/body weight” value in data set [2] (high-fat food mice, glutathione 6 and 60 mg/kg/day in water, 20 weeks old, FIG. 4B) is given as “decrease of the body weight ratio was also recognized”. Also, the “deposition of fat on the liver by high-fat food” value in data set [2] (high-fat food mice, glutathione 6 and 60 mg/kg/day in water, concluded from liver weight) is listed as “suppressed”. Also, in data set [2] (high-fat food mice, glutathione 6 or 60 mg/kg/day in water, FIGS. 1 and 2), the body weight entry is “decrease of the body weight was recognized”.
